Residues, ends and D or L forms follow the SMILES beside them.
Target: T1, Human insulin (HI) amyloid fibrillation (Homo sapiens, UniProt P01308)
T1 construct: Insulin is a covalent dimer of two polypeptide chains (chain A and chain B) having 21 and 30 amino acid residues, respectively
Test: ThT fluorescence assay of insulin fibrillation
Type: biochemical
Conditions: for IC50: 3-parameter dose response fit of normalized ThT intensity at 483 nm vs log [peptide], insulin incubated at 60°C for 72 h, 50 mM acetate buffer pH 2.0, peptide 0-750 μM, triplicates, read-out: IC50 against insulin aggregation; for percent inhibition of aggregation (ThT fluorescence): insulin incubated at 60°C for 72 h with peptide (Supplementary Figure S2), concentration not given
Experimental: Stock solution of insulin was prepared by dissolving insulin lyophilized powder in 50 mM acetate buffer, pH 2.0, and insulin concentration was determined by measuring absorbance at 276 nm, with the extinction coefficients of […] for 1 mg/ml. Fibrils were prepared by incubating insulin solution at 60°C for 72 h.
ThT stock solution was prepared by dissolving ThT in double distilled water, and the resulting solution was passed through a 0.2 micron millipore filter. The concentration of ThT was determined by measuring absorbance at 412 nm with a molar extinction coefficient of 36,600 M^−1cm^−1. ThT fluorescence assay was carried out on Shimadzu fluorescence spectrophotometer (RF-5301 PC). Insulin samples were incubated with or without peptides; from each set, samples were withdrawn at definite time intervals and mixed with ThT to have the final protein and dye concentration of 20 μM. The ThT was excited at 440 nm, and fluorescence spectra were recorded from 460 to 650 nm. Buffer (pH 2.0) was used for dilution, and spectra were corrected for the respective blanks. All measurements were performed in triplicates. All curves were fitted as described previously (Chaturvedi et al., [2015]).

T1 sequence (P01308 25-54 limits assumed): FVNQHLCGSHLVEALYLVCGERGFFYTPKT
T1 sequence (P01308 90-110 limits assumed): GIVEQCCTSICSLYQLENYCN

SMILES | IC50 [µM] | percent inhibition of aggregation (ThT fluorescence) [%]
CC[C@H](C)[C@H](NC(=O)[C@@H](N)C(C)C)C(=O)N[C@@H](Cc1ccccc1)C(=O)N[C@@H](Cc1ccc(O)cc1)C(=O)N[C@H](C(=O)O)[C@@H](C)O [Peptide P4, Val-Ile-Phe-Tyr-Thr] (H-VIFYT-OH) | 278 | 82
CC(C)[C@H](N)C(=O)N[C@H](C(=O)N[C@H](C(=O)N[C@H](C(=O)N[C@H](C(=O)O)C(C)C)C(C)C)C(C)C)C(C)C [Peptide P5, Val-Val-Val-Val-Val] (H-VVVVV-OH) | 446 | 56
